# Measurements as given in PMC8997848, “How Cargo Identity Alters the Uptake of Cell-Penetrating Peptide (CPP)/Cargo Complexes: A Study on the Effect of Net Cargo Charge and Length” (Cells, 2022).
# Columns and labels:
# HeLa cells [1] = assay: Live-cell fluorescent microscopy with line scans of intracellular peptide distribution; format: cell-based; conditions: for intracellular distribution of fluorescence / cellular uptake seen by fluorescence microscopy: 10 μM peptide, 60 min, 37 °C; for intracellular distribution of fluorescence: images and line scans across individual cells (Figures 3, 4, S8); for cellular uptake seen by fluorescence microscopy: FITC filter (Figure 3)
# Protocol: One day prior to the experiment, HeLa cells were seeded in 8-chambered Falcon Culture Slides (Corning) at a density of 3 × 10^4 cells/mL. On the day of the experiment, cells were washed once with ECB before incubation with 10 μM peptide solution (500 μL/well) for 1 h at 37 °C. Following incubation, cells were washed twice with ECB then incubated with 8 μM Hoechst 3342 nuclei acid stain (ThermoFisher Scientific, Carlsbad, CA, USA) for 20 min at room temperature. Cellular fluorescence was visualized using a Leica DMi8 inverted microscope outfitted with a 40× objective (Leica N PLAN L, 0.55× correction). Images were acquired using the digital CMOS camera C11440 (Hamamatsu Photonics K.K., Japan) with a fixed exposure time of 500 ms for the FITC filter, 150 ms for the DAPI filter, and 20 ms for brightfield. The following excitation/emission filters (Chroma Tech. Corp, Bellows Falls, VT, USA) were used to image the device: fluorescein isothiocyanate-FITC (λex 440–520 nm and λem 497–557 nm) for capturing the signal from FAM and DAPI (λex 335–385 nm and λem 405–465 nm) for capturing the signal from the Hoescht stain. Image acquisition was controlled using the Leica Application Suite software (LAS X, version 3.7.4.23463), where all images were recorded using the same parameters. The imaging was followed by quantitative analysis, where a manual line scan region of interest (ROI) was drawn across the center of the cells to quantify their fluorescent signals. Random ROIs were also drawn in free space not containing cells to measure background noise for each image. The fluorescent values were normalized by subtracting the noise from the measured signal.
# HeLa cells [2] = conditions: cited from earlier work
# Description: In addition to improving the permeability and stability of the CPPs themselves, there is significant interest in utilizing known CPPs to deliver bioactive cargoes, such as nanoparticles, therapeutics, or biosensors, to cells. CPPs have found great success of late as delivery vehicles for peptide-based therapeutics, such as PROTACs (proteolysis targeting chimeras), which facilitate the degradation of “undruggable” proteins by selectively ubiquitinating the target protein for proteasome-mediated degradation. […] With the majority of well characterized CPPs being unstructured, and considering the differences in uptake levels, cytotoxicity, and intracellular stability that has been observed when comparing unstructured and structured CPPs, it was important to compare the effects of net cargo charge and length on both unstructured (nona-arginine, R1) and structured (RWRWR, H1) CPPs. To examine the ...
# HeLa cells [3] = assay: Quantification of CPP and CPP/cargo uptake by fluorometry of FAM signal in cell lysate; format: cell-based; conditions: for time dependence of uptake (single factor ANOVA): 10 µM peptide, 10, 20, 40, 60, 100, 120 min, triplicate (Tables S1, S6); for time-dependent analysis of peptide uptake (in words): 10-120 min, triplicate (Figures S5, S7); for uptake of CPP/cargo complex compared to the H1 CPP alone (in words) / effect of net cargo length and arginine position on cellular uptake (one-way ANOVA): 10 µM; for uptake of CPP/cargo complex compared to the H1 CPP alone (in words): uptake normalized against H1, triplicate (Figure 1A); for effect of net cargo length and arginine position on cellular uptake (one-way ANOVA): 1 h, cargoes of +2 charge, 4 or 8 residues, triplicate (Figure 1B, Table S3)
# Protocol: The quantification of peptide uptake was performed using a protocol previously utilized by Safa et al. and Vaithiyanathan et al.. Three days prior to the experiment, HeLa cells were seeded at a density of 1 × 10^4 cells/mL in 12 well plates. Prior to experiments, peptides were reconstituted in sodium phosphate buffer (2.26 mM NaH2PO4·H2O and 8.43 mM Na2HPO4·7H2O) and the peptide concentration was determined using a NanoDrop at the wavelength of 492 nm using the UV-vis function. On the day of the experiment, peptides were diluted to the desired final concentration with extracellular buffer, ECB (5.036 mM HEPES pH 7.4, 136.89 mM NaCl, 2.68 mM KCl, 2.066 mM MgCl2·6H2O, 1.8 mM, CaCl2·2H2O, and 5.55 mM glucose). Cells were washed once with PBS followed by peptide incubation (500 μL/well) at 37 °C. Plates were wrapped in aluminum foil during incubation to avoid deactivating the FAM tag on the peptide. Following the incubation, the peptide solutions were removed, and cells were washed twice with ECB. Cells were then trypsinized (250 μL/well) for 10 min at room temperature. The cells were resuspended in ECB (1 mL/well) and transferred to microcentrifuge tubes. The samples were centrifuged at 1800 rcf for 2.5 min. The supernatant was removed, and the isolated cells were lysed with 0.1 M NaOH (250 μL/tube). Samples were centrifuged again at 14,000 rcf for 5 min to remove any remaining protein bound to the membranes before transferring 150 μL of clarified lysate to a 96 well plate. Fluorometry (Perkin Elmer (Waltham, MA, USA) Wallac 1420 VICTOR2 multilabel HTS counter) was used to quantify the signal resulting from the FAM tag using an excitation filter of 490 nm and an emission filter of 535 nm. For each experiment, a no peptide control (cells incubated with ECB only) was performed. To measure the background signal of each peptide, the peptide solutions used in each experiment were analyzed by fluorometry to normalize the fluorescent signal for each sample. Signals were normalized using Equation (1):Normalized Fluorescence = 1000 × (F − C)/(P − B)(1) where F denotes the fluorescent signal of cells incubated with peptide, C denotes the fluorescent signal of cells incubated with no peptide, P denotes the average fluorescent signal of the peptide in suspension, and B denotes the average fluorescent signal of the ECB. Reported data for each experiment is the average of triplicate samples. Statistical analysis was carried out using JMP Pro 16 software (SAS Institute).
# HeLa cells [4] = assay: alamarBlue cell viability assay; format: cell-based; conditions: 37 °C, 4 h (2 h in method and Figure 2), then alamarBlue 4 h, normalized to no peptide control, triplicate; for effect on cellular viability at 5 µM: HeLa cells, 5 µM peptide; for decrease in cellular viability: HeLa cells, 10, 20, and 30 μM peptide
# Protocol: Two days prior to the experiment, HeLa cells were plated at a density of 1 × 10^5 cells/well in a 96 well plate. Cells were washed once with PBS and incubated with peptide solutions for 2 h at 37 °C. Following this incubation period, cells were washed with ECB and incubated with a mixture of 10 μL alamarBlue Viability Reagent (ThermoFisher Scientific, Carlsbad, CA, USA) in 90 μL serum-free media for 4 h at 37 °C. The fluorescent signal of alamarBlue was measured using fluorometry with an excitation filter of 532 nm and an emission filter of […]. A no peptide control was also performed to normalize the fluorescent signals. Signals were normalized using Equation (2):Normalized Cell Viability = F/C(2) where F denotes the fluorescent signal of cells incubated with peptide and C denotes the fluorescent signal of cells incubated with no peptide. The reported data are the average of triplicate samples.
# [5] = cited from earlier work
# Description: With the majority of well characterized CPPs being unstructured, and considering the differences in uptake levels, cytotoxicity, and intracellular stability that has been observed when comparing unstructured and structured CPPs, it was important to compare the effects of net cargo charge and length on both unstructured (nona-arginine, R1) and structured (RWRWR, H1) CPPs. To examine the ...
# [6] = 10 µM peptide, 60 min, 37 °C, FAM fluorometry of lysate, triplicate (Figure 5)
# [7] = 10 µM peptide, FAM fluorometry of lysate
substance,measurement,setting,value
"FAM-RRRRRRRRR [R1, unstructured nona-arginine CPP, FAM labelled; commercial peptide ARG from AnaSpec, reference compound]",intracellular distribution of fluorescence,HeLa cells [1],punctate regions
same,uptake efficiency compared to the RWRWR (H1) CPP,HeLa cells [2],2 fold
"FAM-RRRRRRRRR-GGGGGGGG [R4, nona-arginine CPP with 8-residue neutral cargo]",decrease in cellular internalization compared to R1 CPP,HeLa cells [3]; [6],50%
"FAM-RRRRRRRRR-GRGR [R2, nona-arginine CPP with 4-residue cargo GRGR, net charge +2]",time dependence of uptake (single factor ANOVA),HeLa cells [3],time-dependent
same,time-dependent analysis of peptide uptake (in words),HeLa cells [3]; [7],greater uptake that the R1 CPP
same,"increase in uptake compared to counterpart with H1 CPP (H2 and H5, respectively)",HeLa cells [3]; [6],140%
same,increase in uptake compared to the R1 CPP,HeLa cells [3]; [6],29%
"FAM-RRRRRRRRR-GRGRGRGR [R3, nona-arginine CPP with 8-residue cargo, net charge +4]",time dependence of uptake (single factor ANOVA),HeLa cells [3],time-dependent
same,time-dependent analysis of peptide uptake (in words),HeLa cells [3]; [7],greater uptake that the R1 CPP
same,"increase in uptake compared to counterpart with H1 CPP (H2 and H5, respectively)",HeLa cells [3]; [6],140%
same,increase in uptake compared to the R1 CPP,HeLa cells [3]; [6],103%
"RWVRVpGO(FAM)WIRQ [H1, RWRWR β-hairpin CPP, FAM on ornithine side chain]",time dependence of uptake (single factor ANOVA),HeLa cells [3],demonstrate time dependence
same,time-dependent analysis of peptide uptake (in words),HeLa cells [3]; [7],greatest penetration
same,effect on cellular viability at 5 µM,HeLa cells [4],did not result in a decrease in cellular viability
same,decrease in cellular viability,HeLa cells [4],~ 5%
same,cellular uptake seen by fluorescence microscopy,HeLa cells [1],successful cellular uptake
same,intracellular distribution of fluorescence,HeLa cells [1],evenly distributed throughout the cell
same,time needed for uptake / sufficient internalization,HeLa cells [2]; HeLa cells,< 10 min
same,increased intracellular stability compared to nona-arginine CPP,[5],20 fold
"RWVRVpGO(FAM)WIRQ-GEGE [H4, H1 CPP with 4-residue cargo GEGE, net charge −2]",time dependence of uptake (single factor ANOVA),HeLa cells [3],demonstrate time dependence
same,uptake of CPP/cargo complex compared to the H1 CPP alone (in words),"HeLa cells [3]; 60 min, 37 °C",diminished uptake
"RWVRVpGO(FAM)WIRQ-GEGEGEGE [H7, H1 CPP with 8-residue cargo, net charge −4]",time dependence of uptake (single factor ANOVA),HeLa cells [3],no time dependence
same,uptake of CPP/cargo complex compared to the H1 CPP alone (in words),"HeLa cells [3]; 60 min, 37 °C",diminished uptake
same,cellular uptake seen by fluorescence microscopy,HeLa cells [1],impermeability
"RWVRVpGO(FAM)WIRQ-GGGG [H3, H1 CPP with 4-residue cargo GGGG, net charge 0]",time dependence of uptake (single factor ANOVA),HeLa cells [3],no time dependence
same,uptake of CPP/cargo complex compared to the H1 CPP alone (in words),"HeLa cells [3]; 60 min, 37 °C",diminished uptake
"RWVRVpGO(FAM)WIRQ-GGGGGGGG [H6, H1 CPP with 8-residue cargo, net charge 0]",time dependence of uptake (single factor ANOVA),HeLa cells [3],demonstrate time dependence
same,uptake of CPP/cargo complex compared to the H1 CPP alone (in words),"HeLa cells [3]; 60 min, 37 °C",diminished uptake
"RWVRVpGO(FAM)WIRQ-GGGGGRGR [H8, H1 CPP with 8-residue +2 cargo, arginines closer to the C-terminus]",effect of net cargo length and arginine position on cellular uptake (one-way ANOVA),HeLa cells [3],no significant difference in cellular uptake
"RWVRVpGO(FAM)WIRQ-GRGR [H2, H1 CPP with 4-residue cargo GRGR, net charge +2]",time dependence of uptake (single factor ANOVA),HeLa cells [3],demonstrate time dependence
same,time-dependent analysis of peptide uptake (in words),HeLa cells [3]; [7],greatest penetration
same,effect of net cargo length and arginine position on cellular uptake (one-way ANOVA),HeLa cells [3],no significant difference in cellular uptake
same,effect on cellular viability at 5 µM,HeLa cells [4],did not result in a decrease in cellular viability
same,decrease in cellular viability,HeLa cells [4],~ 5%
"RWVRVpGO(FAM)WIRQ-GRGRGGGG [H9, H1 CPP with 8-residue +2 cargo, arginines closer to the N-terminus]",effect of net cargo length and arginine position on cellular uptake (one-way ANOVA),HeLa cells [3],no significant difference in cellular uptake
"RWVRVpGO(FAM)WIRQ-GRGRGRGR [H5, H1 CPP with 8-residue cargo, net charge +4]",increase in CPP/cargo uptake on increasing arginine residues from 2 (H2) to 4 (H5),"HeLa cells [3]; 10 µM peptide in ECB, 60 min, 37 °C, trypsinized, lysed in 0.1 M NaOH, FAM fluorometry ex 490/em 535 nm, average of triplicate, compared to H2",58%
same,time dependence of uptake (single factor ANOVA),HeLa cells [3],demonstrate time dependence
same,time-dependent analysis of peptide uptake (in words),HeLa cells [3]; [7],greatest penetration
same,effect on cellular viability at 5 µM,HeLa cells [4],did not result in a decrease in cellular viability
same,decrease in cellular viability,HeLa cells [4],~ 5%
same,cellular uptake seen by fluorescence microscopy,HeLa cells [1],successful cellular uptake
same,intracellular distribution of fluorescence,HeLa cells [1],punctate regions of increased fluorescence
same,cell-to-cell heterogeneity of uptake compared to cells incubated with H1,"HeLa cells [1]; 10 μM, average fluorescence intensity in individual cells (Figure S6)",substantially higher heterogeneity
same,average uptake from single-cell fluorescence intensity compared to H1,"HeLa cells [1]; 10 μM, line scans across 20 single cells, normalized against background (Figure S6)",substantially higher average uptake
